Measurements taken from patent US5298488A, “CM-chitin derivatives and use thereof” (Fuji Photo Film Co., Ltd., priority 1990, dated 1994).
No end group written: not given here.

Legend:
vitronectin = assay: Cell adhesion-inhibitory test against vitronectin (competitive assay, number of adhered cells); assay type: cell-based, human; settings: endothelium cells of blood vessel, 37° C., one hour, 0 control 249
Method in brief: (§1)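 Plates were coated overnight at 37 °C with human fibronectin or vitronectin and blocked with 1% BSA. Vascular endothelial cells were added with CM-chitin derivative (0–1.5 mg/mL solutions in DMEM) for 1 h at 37 °C. After washing, adhered cells were detached with trypsin-EDTA and counted with Trypan Blue.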

[1] = tested on: human plasma rich in platelet; assay: Platelet coagulation-inhibitory activity in vitro, transmittance by aggregometer; assay type: cell-based; settings: 37° C., 3 minutes preincubation
Method in brief: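 Citrated human platelet-rich plasma was preincubated with CM-chitin derivative (solutions of 0–1.5 mg/ml in saline) for 3 min at 37 °C, then challenged with 50 μM ADP or 200 μg/ml collagen solution. Aggregometer transmittance gave inhibition as (1−T/T0)×100%, with T0 the untreated transmittance.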

fibronectin = assay: Cell adhesion-inhibitory test against fibronectin (competitive assay, number of adhered cells); assay type: cell-based, human; settings: endothelium cells of blood vessel, 37° C., one hour, 0 mg/ml control 160
Method in brief: as §1

“Itaconyl Derivative of CM-Chitin Arg-Gly-Asp-Ser (RGDS; also: conjugated to itaconyl CM-chitin) [CM--chitin derivative-5]” was tested, and the “Cell Adhesion-Inhibitory effect Against Vitronectin (number of adhered cells)” value (vitronectin; concentration 10 mg/ml (so in the source)) was 129 cell/well, the “Cell Adhesion-Inhibitory effect Against Vitronectin (number of adhered cells)” value (vitronectin; concentration 50 mg/ml (so in the source)) was 91 cell/well and the “Cell Adhesion-Inhibitory effect Against Vitronectin (number of adhered cells)” value (vitronectin; concentration 100 mg/ml (so in the source)) was 80 cell/well. The “Cell Adhesion-Inhibitory effect Against Vitronectin (number of adhered cells)” value (vitronectin; concentration 300 mg/ml (so in the source)) was 48 cell/well, the “Platelet Coagulation-Inhibitory Action IC50, ADP Stimulation” value ([1]; ADP stimulation (50 μM ADP solution)) was 17 µg/mL and the “Platelet Coagulation-Inhibitory Action IC50, Collagen Stimulation” value ([1]; collagen stimulation (200 μg/ml collagen solution)) was 12 µg/mL. The “Cell Adhesion-Inhibitory effect Against Fibronectin (number of adhered cells)” value (fibronectin; concentration 0.5 mg/ml) was 105 cell/well, the “Cell Adhesion-Inhibitory effect Against Fibronectin (number of adhered cells)” value (fibronectin; concentration 1.0 mg/ml) was 86 cell/well and the “Cell Adhesion-Inhibitory effect Against Fibronectin (number of adhered cells)” value (fibronectin; concentration 1.5 mg/ml) was 72 cell/well. The “Cell Adhesion-Inhibitory effect Against Fibronectin (number of adhered cells)” value (fibronectin; concentration .25 mg/ml) was 136 cell/well.
